Data taken from the CheMixHub ionic liquid set.

Test: xn = mol fraction of the nth substance listed

CC[NH3+].O=[N+]([O-])[O-] + CC#N
100 kPa
Conditions | electrical conductivity [S/m] | viscosity [mPa·s]
278 K, x1 = 0.3 | 2.52 | –
288 K, x1 = 0.7 | 2.71 | –
288.08 K, x1 = 0.7 | – | 20.78
288.08 K, x1 = 0.98 | – | 43.7
288.09 K, x1 = 0.3 | – | 3.15
293.09 K, x1 = 0.3 | – | 2.819
298 K, x1 = 0.7 | 3.71 | 14.73
298.1 K, x1 = 0.98 | – | 33.2
298.14 K, x1 = 0.2 | – | 1.406
308 K, x1 = 0.2 | 5.19 | –
308 K, x1 = 0.7 | 4.94 | –
308.09 K, x1 = 0.8 | – | 14.76
308.11 K, x1 = 0.9 | – | 20.7
308.12 K, x1 = 0.6 | – | 7.76
308.14 K, x1 = 0.7 | – | 10.53
308.15 K, x1 = 0.3 | – | 2.292

C[N+](C)(C)CCC[N+]1(C)CCCCC1.N#C[N-]C#N.N#C[N-]C#N + CC#N
100 kPa
Conditions | viscosity [mPa·s]
288.15 K, x1 = 0.7996 | 2305
293.15 K, x1 = 0.0999 | 3.69
293.15 K, x1 = 1 | 4503
298.15 K, x1 = 0.3001 | 37.7
298.15 K, x1 = 0.5002 | 181
298.15 K, x1 = 1 | 2819
303.15 K, x1 = 0.3998 | 69.5
308.15 K, x1 = 0.0999 | 2.98
308.15 K, x1 = 0.3001 | 26.5
308.15 K, x1 = 0.3998 | 56.5
308.15 K, x1 = 0.5002 | 109
313.15 K, x1 = 0.2001 | 9.24
313.15 K, x1 = 0.8998 | 545
318.15 K, x1 = 0.0999 | 2.68
318.15 K, x1 = 0.2001 | 8.26
318.15 K, x1 = 0.5002 | 70.4
318.15 K, x1 = 0.7001 | 163
318.15 K, x1 = 1 | 618
323.15 K, x1 = 0.3001 | 17.3
323.15 K, x1 = 0.6 | 91.8
323.15 K, x1 = 0.7001 | 130
328.15 K, x1 = 0.2001 | 6.82
328.15 K, x1 = 0.5002 | 48.7
328.15 K, x1 = 0.6 | 74.3
333.15 K, x1 = 0.5002 | 41.6
333.15 K, x1 = 0.8998 | 183

CCCC[P+](CCCC)(CCCC)CCCC.F[B-](F)(F)F + CC#N + C1CCOC1
298.15 K, 100 kPa
Conditions | viscosity [mPa·s]
x1 = 0.0005747, x2 = 0.84 | 0.377
x1 = 0.0006326, x2 = 0.6368 | 0.408
x1 = 0.000709, x2 = 0.369 | 0.437
x1 = 0.0008641, x2 = 0.8398 | 0.381
x1 = 0.0009513, x2 = 0.6366 | 0.412
x1 = 0.001066, x2 = 0.3689 | 0.442
x1 = 0.001153, x2 = 0.8395 | 0.384
x1 = 0.00127, x2 = 0.6364 | 0.416
x1 = 0.001429, x2 = 0.3688 | 0.447
x1 = 0.001442, x2 = 0.8393 | 0.388
x1 = 0.001588, x2 = 0.6362 | 0.42
x1 = 0.001736, x2 = 0.839 | 0.392
x1 = 0.001786, x2 = 0.3686 | 0.451
x1 = 0.001911, x2 = 0.636 | 0.424
x1 = 0.002029, x2 = 0.8388 | 0.396
x1 = 0.002142, x2 = 0.3685 | 0.456
x1 = 0.002229, x2 = 0.6358 | 0.429
x1 = 0.002504, x2 = 0.3684 | 0.461

CCCC[P+](CCCC)(CCCC)CCCC.F[B-](F)(F)F + CC#N + C1COCO1
298.15 K, 100 kPa
Conditions | viscosity [mPa·s]
x1 = 0.0005495, x2 = 0.8436 | 0.41
x1 = 0.0005755, x2 = 0.6431 | 0.471
x1 = 0.0006287, x2 = 0.3754 | 0.532
x1 = 0.0008217, x2 = 0.8434 | 0.414
x1 = 0.0008656, x2 = 0.6429 | 0.476
x1 = 0.0009366, x2 = 0.3753 | 0.537
x1 = 0.001098, x2 = 0.8432 | 0.418
x1 = 0.001156, x2 = 0.6427 | 0.481
x1 = 0.00125, x2 = 0.3751 | 0.543
x1 = 0.001375, x2 = 0.8429 | 0.422
x1 = 0.001445, x2 = 0.6425 | 0.486
x1 = 0.001564, x2 = 0.375 | 0.548
x1 = 0.001651, x2 = 0.8427 | 0.426
x1 = 0.00174, x2 = 0.6423 | 0.491
x1 = 0.001878, x2 = 0.3749 | 0.554
x1 = 0.001927, x2 = 0.8425 | 0.43
x1 = 0.00203, x2 = 0.6421 | 0.496
x1 = 0.002191, x2 = 0.3748 | 0.56

C[P+](c1ccccc1)(c1ccccc1)c1ccccc1.[Br-] + CC(=O)O
Conditions | viscosity [mPa·s]
298.2 K, 101 kPa, x1 = 0.2 | 74.5

CC(=O)[O-].[NH4+] + CC(=O)[O-].CC[n+]1ccn(C)c1
101 kPa
Conditions | electrical conductivity [S/m] | viscosity [mPa·s]
298.15 K, x1 = 0.4491 | 0.0734 | 1020
308.15 K, x1 = 0.328 | 0.215 | 273
308.15 K, x1 = 0.4491 | 0.148 | 458
313.15 K, x1 = 0.0999 | 0.494 | 76.2
313.15 K, x1 = 0.1703 | 0.41 | 101.3
313.15 K, x1 = 0.328 | 0.286 | 197
318.15 K, x1 = 0.2498 | 0.449 | 106.6
318.15 K, x1 = 0.328 | 0.371 | 144.6

CC(=O)[O-].[Na+] + CC(=O)[O-].CC[n+]1ccn(C)c1
303.15 K, 101 kPa, x1 = 0.1001
Conditions | electrical conductivity [S/m] | viscosity [mPa·s]
– | 0.252 | 147.4
